Data taken from patent publication US12391672B2, “Solid forms comprising (S)-4-(4-(4-(((2-(2,6-dioxopiperidin-3-yl)-1-oxoisoindolin-4-yl)oxy)methyl)benzyl)piperazin-1-yl)-3-fluorobenzonitrile and salts thereof, and compositions comprising and methods of using the same” (Celgene Corporation, priority 2019, dated 2025).
“And” between values parts separate entries of the source, which are not always exact repeats. Equal entries are not always repeated.

Experiments:
Assay type in all cases: physicochemical
[1] = Mechanical stressing (grinding, compression); conditions: compressed under 2000 psi for 1 minute
Method: Mechanical stressing experiment: the following table describes three experiments involving mechanical stressing of Form A and/or Form B of free base Compound 1 by grinding with a mortar and pestle.
Shear Sensitivity: Form K was compressed under 2000 psi for 1 minute and analyzed by XRPD.

[2] = Solubility determination (15 minutes at room temperature, HPLC); conditions: fifteen minutes
Method: 1 mL of buffer or of ultrapure (resistivity≥18.2 Mf cm) water was added to a pre-weighed, approximately twenty milligram aliquot of the substance to be measured. The resulting suspensions were stirred for 15 minutes at room temperature with magnetic stirrers. The suspensions were centrifuged and filtered through Millipore 0.2 μm PVDF filters, and the concentration of each filtrate (i.e., saturated solution) was determined using a general HPLC method. The pH of each saturated solution was measured with a Metrohm 713 pH meter.
To assess whether Form K and Form K′ are likely to have different bioavailabilities, comparative solubility measurements were carried out in physiologically relevant media. Samples of Form K and Form K′ were separately equilibrated in pure water, pH 2.0 buffer, and pH 6.8 buffer for fifteen minutes, and the solids were then separated from the solvents. The concentration of the compound in the filtrate (i.e., the solubility) was assessed in each case, and the solid residues were also monitored by powder X-ray diffraction. All six solid residues correspond to Form K, confirming that Form K′ rapidly incorporates water into its lattice when suspended in an aqueous environment even when the solubility is low. While the solubilities in pure water and at pH 6.8 were below the limit of quantitation of 0.0001 mg/mL, the solubilities at pH 2.0 could be measured. […] Thus, the bioavailabilities of the two forms are expected to be similar, and precise control of the water content (and, thereby, the solid form) is presumably not necessary from a scientific point of view. Given that the critical water activity is in the range aH2O=0.11-0.17, the hydrated Form K is likely to be the more easily stabilized of the two forms under ambient laboratory conditions.

[3] = Competitive slurry and slurry stability experiments; conditions: acetone/water, water contents 5% vol. and higher, room temperature and 45° C.
Method: Form B was obtained at room temperature while form C was obtained at 45° C. in acetone alone.
The HBr salt was largely insoluble in various buffers when 1 mg/mL slurries were prepared and the mother liquor concentration determined (by HPLC): <0.05 mg/mL in all buffers tested.

[4] = Dynamic vapor sorption / hygroscopicity
In short: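 Sample equilibrated at 50% r.h. on a microbalance, then one cycle at ±5% r.h. h^−1 spanning 0–95% r.h., with 5 h holds at 0% and 95% r.h. and 2 h holds at 50% r.h., run either desorption-first or sorption-first. Hygroscopicity classed from mass gain at 85% r.h. relative to initial mass.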

[5] = Solubility of polymorphic forms in physiologically relevant media and final pH
Description: Solubility data of the several polymorphic forms of Compound 1 in physiologically relevant media and the final pH of these solutions are summarized in the following tables.

[6] = Storage at controlled relative humidities (Form K / Form K′)
Description: It was noticed that after Form K was dried, the XRPD peaks of Form K shifted to a higher value and the resulting XRPD pattern is called Form K′. To further understand the relationships between the two forms, free base Form K and Form K′ were placed on XRPD sample holders and stored in a closed Jars with saturated salt solutions for RH controls at ambient temperature, respectively. […] The XRPD diffractograms of the samples after 2-day storage are presented in FIG. 132 and FIG. 133, respectively. […] Since the peaks of Form K shifted to higher 2-theta value as Form K loses water molecules to Form K′, Form K and Form K′ are on a continuum.

SMILES: N#Cc1ccc(N2CCN(Cc3ccc(COc4cccc5c4CN([C@H]4CCC(=O)NC4=O)C5=O)cc3)CC2)c(F)c1.O [Form K of a free base of Compound 1]
- Shear Sensitivity (XRPD) [1]: remained as Form K
- solubility at pH 2.0 ([2]; pH 2.0 buffer): 0.96 mg/mL
- solid residue after solubility measurement (powder X-ray diffraction) ([2]; pure water, pH 2.0 buffer and pH 6.8 buffer): Form K
- competitive slurry of Form B, Form C and Form K [3]: most stable form
- plateau in water uptake ([4]; DVS sorption, corresponding to ~1 mole of water): ~3.2 % w/w
- hygroscopicity ([4]; DVS, class by mass gain at 85% r.h.): slightly hygroscopic (slightly hygroscopic (mass increase of <2% but ≥0.2%))
- solid form after DVS cycle ([4]; after the DVS humidity cycle): stable with respect to application of a DVS cycle
- DVS mass increase ([4]; relative humidity from about 5% to about 95%): about 3.2%
- Solubility ([5]; FaSSIF): 1 µg/mL
- Solubility ([5]; FeSSiF): 5 µg/mL
- Solubility ([5]; SGF with pepsin): 420 µg/mL
- Solubility ([5]; Water): <LOQ
- Solubility ([5]; pH 1 buffer HC1/NaC1): 133 µg/mL
- Solubility ([5]; pH 3 buffer (phosphate)): 90 µg/mL
- Solubility ([5]; pH 4 buffer (acetate)): 11 µg/mL
- Solubility ([5]; pH 5 buffer (acetate)): 1 µg/mL
- Final pH ([5]; solubility sample in FaSSIF): 6.33
- Final pH ([5]; solubility sample in FeSSiF): 5.02
- Final pH ([5]; solubility sample in SGF with pepsin): 1.47
- Final pH ([5]; solubility sample in Water): 6.71
- Final pH ([5]; solubility sample in pH 1 buffer HC1/NaC1): 1.20
- Final pH ([5]; solubility sample in pH 3 buffer (phosphate)): 3.09
- Final pH ([5]; solubility sample in pH 4 buffer (acetate)): 3.98
- Final pH ([5]; solubility sample in pH 5 buffer (acetate)): 5.01
- form conversion on storage (XRPD) ([6]; 11% RH, ambient temperature): converts to K′
- critical water activity range for interconversion of Form K and Form K′ ([6]; aH2O): 0.11-0.22 and 0.11-0.17
- PXRD result after storage ([6]; stored at 17% r.h. and r.t. for 5.5 d): Form K
